What was measured:
[1] = test system: ventral prostates (VP) and seminal vesicles (SV) of immature castrated rats; experiment: Immature castrated male rat model (antiandrogen activity); format: in vivo; conditions: co-administered with 0.1 mg of TP
Method: Since the male sex organs are the tissues most responsive to modulation of androgen activity, this model is used to determine the androgen-dependent growth of the sex accessory organs in immature castrated rats.
Five days after surgery, animals groups were dosed for 3 days as follows:
At the end of the 3-day treatment, the animals were sacrificed, and the ventral prostates (VP) and seminal vesicles (SV) were collected and weighed. To compare data from different experiments, the sexual organ weights were first standardized as mg per 100 g of body weight, and the increase in organ weight induced by TP was considered as the maximum increase (100%). Super-anova (one factor) was used for statistical analysis.
The gain and loss of sexual organ weights reflect the changes of cell number (DNA content) and cell mass (protein content), depending upon the serum androgen concentration. […] Therefore, measurement of organ wet weights is sufficient to indicate the bioactivity of androgens and androgen antagonists.

[2] = target: T1, human glucocorticoid receptor alpha (GRα) (Homo sapiens, UniProt P04150); experiment: GR binding assay, baculovirus extract, [3H] dexamethasone; conditions: competition with [3H] dexamethasone, 4° C., 16 hours; read-out: GR Binding K1
T1 construct: made in house; crude extract used
T1 sequence (P04150 1-777): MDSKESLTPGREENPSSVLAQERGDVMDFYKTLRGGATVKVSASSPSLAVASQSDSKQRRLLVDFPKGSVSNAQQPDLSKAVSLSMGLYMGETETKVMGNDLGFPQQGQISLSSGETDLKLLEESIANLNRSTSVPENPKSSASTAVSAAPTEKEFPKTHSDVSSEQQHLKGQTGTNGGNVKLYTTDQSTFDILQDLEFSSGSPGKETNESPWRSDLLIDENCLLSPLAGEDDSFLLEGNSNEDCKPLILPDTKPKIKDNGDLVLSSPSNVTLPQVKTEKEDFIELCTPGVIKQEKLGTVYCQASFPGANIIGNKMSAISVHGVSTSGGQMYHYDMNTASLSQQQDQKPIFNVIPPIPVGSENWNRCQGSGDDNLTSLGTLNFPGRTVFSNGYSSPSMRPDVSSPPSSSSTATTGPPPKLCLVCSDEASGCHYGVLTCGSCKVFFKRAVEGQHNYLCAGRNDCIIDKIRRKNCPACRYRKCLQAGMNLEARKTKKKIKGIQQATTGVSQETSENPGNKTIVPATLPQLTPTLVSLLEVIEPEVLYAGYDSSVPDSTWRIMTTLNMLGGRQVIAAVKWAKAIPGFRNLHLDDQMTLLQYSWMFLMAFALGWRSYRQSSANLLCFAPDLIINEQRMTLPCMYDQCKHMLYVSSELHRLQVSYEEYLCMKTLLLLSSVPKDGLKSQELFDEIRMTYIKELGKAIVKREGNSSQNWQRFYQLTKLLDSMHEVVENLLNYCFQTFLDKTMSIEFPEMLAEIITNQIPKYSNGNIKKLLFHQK

[3] = target: T2, human mineralocorticoid receptor (MR) (Homo sapiens, UniProt P08235); experiment: Co-transfection assay, MR antagonist activity, CV-1 cells (pRShMR); format: cell-based; conditions: antagonist mode; for MR Antagonist CV-1 Cells Efficacy (%): % maximal inhibition; for IC50: read-out: MR Antagonist CV-1 Cells Potency
T2 construct: expressed in transfected cells; host or cells: CV-1 cells, transient transfection
T2 sequence (P08235 1-984): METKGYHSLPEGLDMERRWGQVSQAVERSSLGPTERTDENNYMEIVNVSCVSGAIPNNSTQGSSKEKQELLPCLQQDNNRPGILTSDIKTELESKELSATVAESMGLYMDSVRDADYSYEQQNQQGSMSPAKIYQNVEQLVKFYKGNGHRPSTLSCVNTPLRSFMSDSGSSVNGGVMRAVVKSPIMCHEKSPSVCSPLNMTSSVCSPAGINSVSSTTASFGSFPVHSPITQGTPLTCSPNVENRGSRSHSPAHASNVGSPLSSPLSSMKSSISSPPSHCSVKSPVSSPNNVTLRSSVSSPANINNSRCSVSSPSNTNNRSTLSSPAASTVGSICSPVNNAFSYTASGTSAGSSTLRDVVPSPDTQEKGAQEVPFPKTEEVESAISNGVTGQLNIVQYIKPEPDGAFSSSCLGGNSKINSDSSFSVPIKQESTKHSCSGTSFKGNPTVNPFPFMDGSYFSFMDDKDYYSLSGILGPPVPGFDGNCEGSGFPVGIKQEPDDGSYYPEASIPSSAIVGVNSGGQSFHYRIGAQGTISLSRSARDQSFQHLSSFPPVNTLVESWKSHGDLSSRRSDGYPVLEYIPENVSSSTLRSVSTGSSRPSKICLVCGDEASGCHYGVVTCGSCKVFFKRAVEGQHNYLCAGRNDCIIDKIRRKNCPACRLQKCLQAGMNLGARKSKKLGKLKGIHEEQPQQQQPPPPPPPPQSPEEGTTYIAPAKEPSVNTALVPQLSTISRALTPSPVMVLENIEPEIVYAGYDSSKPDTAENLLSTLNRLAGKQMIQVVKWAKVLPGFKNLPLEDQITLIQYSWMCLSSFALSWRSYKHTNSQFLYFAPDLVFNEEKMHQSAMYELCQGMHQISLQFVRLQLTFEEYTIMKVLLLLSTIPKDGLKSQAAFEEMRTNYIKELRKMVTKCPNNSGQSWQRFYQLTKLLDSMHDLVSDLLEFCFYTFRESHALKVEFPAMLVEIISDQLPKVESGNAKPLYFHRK

[4] = target: T3, human glucocorticoid receptor (GR) (Homo sapiens, UniProt P04150); experiment: Co-transfection assay, GR antagonist activity, CV-1 cells (pRShGR); format: cell-based; conditions: antagonist mode; for GR Antagonist CV-1 Cells Efficacy (%): % maximal inhibition; for IC50: read-out: GR Antagonist CV-1 Cells Potency
T3 construct: expressed in transfected cells; host or cells: CV-1 cells, transient transfection
T3 sequence (P04150 1-777): T1 sequence (P04150 1-777)

PR, AR, ER, GR and MR = experiment: cis-trans or co-transfection assay, steroid receptor panel (cross-reactivity); format: cell-based, human; conditions: as seen in the Tables
[5] = test system: pregnancy (implantation sites) in female mice (ICR strain); experiment: Implantation assay (antiprogestin activity); format: in vivo, mouse; conditions: R5020 1.0 mg per day
Method: Mating was assumed to have taken place at 02.00 h, time 0.
Compound 150 was dissolved in sesame oil (50 mg/mL) and kept at room temperature before use. […] Control animals received an equivuivalent volume of the control vehicle, sesame oil, alone.
The animals were sacrificed, and autopsies were carried out at Day 8 of pregnancy, and numbers of implantation sites counted and recorded, and are shown in Table 7 below. Each group consisted of between 5 and 7 animals.

[6] = target: T4, human progesterone receptor A form (PR-A) (Homo sapiens, UniProt P06401); experiment: PR binding assay, baculovirus extract, [3H] progesterone; conditions: read-out: PR Binding Ki
T4 sequence (P06401 1-769 isoform P06401-2): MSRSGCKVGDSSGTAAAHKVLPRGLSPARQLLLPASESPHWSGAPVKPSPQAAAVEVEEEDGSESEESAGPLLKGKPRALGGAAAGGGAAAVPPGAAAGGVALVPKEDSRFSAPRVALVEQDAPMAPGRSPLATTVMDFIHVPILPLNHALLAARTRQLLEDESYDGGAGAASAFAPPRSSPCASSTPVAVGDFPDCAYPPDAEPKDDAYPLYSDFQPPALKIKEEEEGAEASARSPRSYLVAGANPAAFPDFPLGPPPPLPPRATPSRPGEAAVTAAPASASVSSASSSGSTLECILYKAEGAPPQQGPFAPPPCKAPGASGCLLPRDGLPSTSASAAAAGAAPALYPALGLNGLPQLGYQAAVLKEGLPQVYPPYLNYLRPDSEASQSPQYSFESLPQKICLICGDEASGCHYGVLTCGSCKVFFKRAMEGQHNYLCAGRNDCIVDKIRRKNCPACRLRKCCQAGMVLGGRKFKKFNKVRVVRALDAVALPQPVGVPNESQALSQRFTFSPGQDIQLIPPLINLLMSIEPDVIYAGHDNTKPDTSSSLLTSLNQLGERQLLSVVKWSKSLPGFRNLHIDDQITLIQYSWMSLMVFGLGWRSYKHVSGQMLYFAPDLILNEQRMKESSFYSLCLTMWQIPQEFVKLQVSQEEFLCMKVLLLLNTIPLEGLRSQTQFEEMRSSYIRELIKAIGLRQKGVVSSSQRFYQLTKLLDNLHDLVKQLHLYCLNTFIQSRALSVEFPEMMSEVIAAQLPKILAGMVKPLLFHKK

human PR-B = target: T5, human PR-B (Homo sapiens, UniProt P06401); experiment: Co-transfection assay, PR agonist and antagonist activity, CV-1 cells; format: cell-based;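 also: luciferase reporter driven by a hormone response element, co-transfected with human PR-B into CV-1 monkey kidney cells, agonists raise and antagonists lower the reporter signal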
T5 construct: expressed in transfected cells; host or cells: CV-1 cells (African green monkey kidney fibroblasts), transient transfection
T5 sequence (P06401 1-933): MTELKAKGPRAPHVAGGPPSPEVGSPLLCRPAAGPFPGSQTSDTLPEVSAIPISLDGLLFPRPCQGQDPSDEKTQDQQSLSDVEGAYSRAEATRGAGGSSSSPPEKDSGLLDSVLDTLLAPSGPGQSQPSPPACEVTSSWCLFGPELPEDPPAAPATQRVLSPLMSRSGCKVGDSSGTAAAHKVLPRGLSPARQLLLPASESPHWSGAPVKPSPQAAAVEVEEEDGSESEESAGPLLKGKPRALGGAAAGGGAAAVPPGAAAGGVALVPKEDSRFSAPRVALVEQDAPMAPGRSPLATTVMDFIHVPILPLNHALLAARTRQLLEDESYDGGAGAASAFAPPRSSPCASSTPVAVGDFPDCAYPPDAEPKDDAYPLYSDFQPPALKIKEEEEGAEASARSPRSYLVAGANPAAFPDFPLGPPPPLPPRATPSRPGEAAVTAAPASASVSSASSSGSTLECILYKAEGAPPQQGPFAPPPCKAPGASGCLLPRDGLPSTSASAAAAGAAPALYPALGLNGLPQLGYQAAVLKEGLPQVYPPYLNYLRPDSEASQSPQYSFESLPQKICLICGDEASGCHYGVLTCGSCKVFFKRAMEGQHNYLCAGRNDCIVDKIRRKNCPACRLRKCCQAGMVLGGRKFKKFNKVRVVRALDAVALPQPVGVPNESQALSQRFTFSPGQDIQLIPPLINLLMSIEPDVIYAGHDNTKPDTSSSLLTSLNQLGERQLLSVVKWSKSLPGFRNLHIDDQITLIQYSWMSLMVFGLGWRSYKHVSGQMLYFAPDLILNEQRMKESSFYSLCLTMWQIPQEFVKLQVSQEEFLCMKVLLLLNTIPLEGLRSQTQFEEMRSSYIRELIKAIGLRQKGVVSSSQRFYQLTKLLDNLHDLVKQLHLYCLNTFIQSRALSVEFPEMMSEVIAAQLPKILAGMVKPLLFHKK

| Compound | Ki [2] [nM] | MR Antagonist CV-1 Cells Efficacy (%) ([3]; Table 4) | IC50 ([3]; aldosterone at its EC50) [nM] | GR Antagonist CV-1 Cells Efficacy (%) ([4]; Table 4) | IC50 ([4]; dexamethasone at its EC50) [nM] | other results |
| --- | --- | --- | --- | --- | --- | --- |
| CC1=CC(C)(C)Nc2cc3c(cc21)c(C(F)(F)F)cc(=O)n3C [Compound 261, 1,2-Dihydro-2,2,4,9-tetramethyl-6-trifluoromethyl-8-pyridono[5,6-g]quinoline] | – | – | – | – | – | AR antagonist activity: suppression of testosterone-mediated increases in the weights of VP and SV [1]: exhibited AR antagonist activity |
| CC1=CC(C)(C)Nc2ccc3c(c21)C(c1ccc(C)cc1)Oc1ccccc1-3 (racemic) [Compound 167, (R/S)-1,2-Dihydro-2,2,4-trimethyl-5-(4-Methylphenyl)-5H-chromeno[3,4-f]quinoline] | 21 | 61 | 2000 | 96 | 855 | MR Antagonist CV-1 Cells Efficacy (%) ([3]; aldosterone at its EC50): 61%; GR Antagonist CV-1 Cells Efficacy (%) ([4]; dexamethasone at its EC50): 96% |
| CC1=CC(C)(C)Nc2ccc3c(c21)C(c1ccsc1)Oc1ccccc1-3 (racemic) [Compound 170, (R/S)-1,2-Dihydro-2,2,4-trimethyl-5-(thiophen-3-yl)-5H-chromeno[3,4-f]quinoline] | 47 | 84 | 410 | 94 | 1550 | – |
| CC1=CC(C)(C)Nc2ccc(-c3cccc(C#N)c3)cc21 [Compound 150, 6-(3-Cyanophenyl)-1,2-dihydro-2,2,4-trimethylquinoline] | – | – | – | – | – | steroid receptor selectivity profile (PR, AR, ER, GR and MR): highly selective PR antagonists; effect on pregnancy rate with simultaneous injection of PR agonist R5020 [5]: reversed to the control level; Ki [6]: 17 nM; EC50 (human PR-B; agonist mode, EC50, read-out: PR Agonist CV-1 Cells Potency): 3200 nM; IC50 (human PR-B; read-out: PR Antagonist CV-1 Cells Potency): 24 nM |
| CC1=CC(C)(C)Nc2ccc3c(c21)C(c1cc(F)cc(Br)c1)Oc1ccccc1-3 (racemic) [Compound 351, (R/S)-5-(3-Bromo-5-Fluorophenyl)-1,2-dihydro-2,2,4-trimethyl-5H-chromeno[3,4-f]quinoline] | – | – | – | – | – | melting point: 82 to 84 °C |
| CC1=CC(C)(C)Nc2c1cc1c(C(F)(F)F)cc(=O)[nH]c1c2C [Compound 255, 1,2-Dihydro-2,2,4,10-tetramethyl-6-trifluoromethyl-8-pyridono[5,6-g]quinoline] | – | – | – | – | – | AR antagonist activity: suppression of testosterone-mediated increases in the weights of VP and SV [1]: exhibited AR antagonist activity |
| C=C1CC(C)(C)Nc2ccc3c(c21)C(c1cccc(F)c1)Oc1ccccc1-3 (racemic) [Compound 192, (R/S)-5-(3-Fluorophenyl)-1,2,3,4-tetrahydro-2,2-dimethyl-4-methylidene-5H-chromeno[3,4-f]quinoline] | 214 | 70 | 320 | 81 | 280 | – |

From patent US6448405B1, “Steroid receptor modulator compounds and methods” (Ligand Pharmaceuticals Incorporated, priority 1994, dated 2002)
